Experimental data reported in PubChem BioAssay AID434946 (Broad Institute, 2010).
Calls of active or inactive are those of the source.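 The calls were made as follows: active = compounds lowering the growth signal with a fitted EC50 no more than tenfold above the top dose; inconclusive = flat fit with partial effect, or a poor fit; inactive = the rest.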

Test system: NIH 3T3 fibroblast viability, Alamar Blue fluorescence, 48 h
Test: mammalian fibroblast viability loss, compound alone – cell-based, alamar blue fluorescence, no fluconazole, cytotoxicity control for Candida fluconazole-potentiator project, dose response (AID 434946)

SMILES | EC50
COc1ccc(-n2nc(C(=O)NCC(=O)N3CCN(c4ccccc4)CC3)c3ccccc3c2=O)c(OC)c1 | > 26 µM (inactive)
c1ccc2c(c1)OCC(CNc1ncnc3sccc13)O2 (configuration not stated) | > 26 µM (inactive)
O=C(Nc1nnc(CCc2ccccc2)s1)c1ccco1 | > 26 µM (inactive)
O=C1/C(=C\c2ccccc2)CCc2c1[nH]c1ccccc21 | > 26 µM (inactive)
Nc1nccnc1C(=O)Nc1nnc(SCc2ccc(Cl)cc2)s1 | > 26 µM (inactive)
CCc1ccc2c(c1)/C(=C/C(=O)c1cccs1)C(=O)N2 | > 26 µM (inactive)
Cc1ccc(C(=O)c2coc3c2C(=O)C(=O)c2ccccc2-3)cc1 | > 26 µM (inactive)
CCOC(=O)N1C(=O)C2(CCCCC2)N(c2ccc(C)cc2)C1=S | 0.888 µM
CC(C)COCc1ccc(O)c2ncccc12 | 19.5 µM
CCCC(=O)NC(c1ccc(Cl)cc1)c1ccc2cccnc2c1O (configuration not stated) | 21.3 µM
O=C(Nc1nc(-c2ccccn2)cs1)c1ccc(Br)s1 | 11.9 µM
Clc1ccc2c(c1)C(c1cccs1)=NNC(c1cccnc1)=N2 | > 26 µM (inactive)
CC(C)N1CCc2c(sc(NC(=O)c3nc4ccccc4s3)c2C(N)=O)C1 | > 26 µM (inactive)
CCOC(=O)c1c(-c2ccccc2Cl)cn2ccccc12 | > 26 µM (inactive)
COc1cc2c(cc1NC(=O)c1ccco1)CCCC2 | > 26 µM (inactive)
Cc1oc2c(F)c(F)c(F)c(F)c2c1S(=O)(=O)Nc1cccc(C(F)(F)F)c1 | > 26 µM (inactive)
Cc1ccc(Nc2nc(N)c([N+](=O)[O-])c(N3CCC(C)CC3)n2)cc1C | > 26 µM (inactive)
O=C(Nc1nnc(-c2ccc3c(c2)CCCC3)o1)c1ccc(Cl)cc1Cl | 18.4 µM
Cc1ccc(C(=O)Nc2cccc(-c3cn4ccccc4n3)c2)cc1 | > 26 µM (inactive)
O=C(Nc1nnc(SCc2ccc(Cl)cc2)s1)c1ccc2ccccc2n1 | > 26 µM (inactive)
O=C(Nc1nnc(-c2ccco2)o1)c1ccc(Cl)cc1 | > 26 µM (inactive)
Cc1ccc(/C=C/C(=O)c2ccccc(=O)c2O)cc1C | > 26 µM (inactive)
O=C(Nc1sc2c(c1C(=O)c1ccc(Cl)cc1)CCCC2)c1cccnc1 | > 26 µM (inactive)
O=C(NNC1=C(C(=O)C(F)(F)F)CCC1)c1ccc(Cl)cc1 | > 26 µM (inactive)
Cc1nc2ccccc2cc1OCc1ccc(F)cc1 | > 26 µM (inactive)
COc1ccc(-c2nnc(NC(=O)c3ccc(F)cc3)o2)cc1 | > 26 µM (inactive)
O=C(Oc1c(Cl)cc(Cl)c2cccnc12)c1cccs1 | 1.98 µM
